This is an account of results in the COVID Moonshot data (paper PMC7615835).

For data set [1] the following is noted: in vivo, iv, 0.5 mg/kg.
Data set [2] deals with SARS-CoV-2 Main Protease (SARS-CoV-2) (UniProt P0DTD1).

Values joined by “and” are separate entries in the source; they are usually repeats but may differ in a detail not shown here. Identical values can stand only once.

In the case of `O=C(Cc1cccc(Cl)c1)Nc1cncc2c(F)cccc12`, in data set [1] (rat), the total exposure AUC(0-inf) was 140 ng·h/mL and 138 ng·h/mL; the AUC(0-t) is 139 ng·h/mL and 136 ng·h/mL; the C0 was 515 ng/mL and 498 ng/mL; the MRT inf was 19.8 min and 20.1 min. Moreover, in data set [1] (rat), the mean residence time MRT last was 19.1 min and 18.7 min; the distribution volume (Vd) stood at 1.02 L/kg; the clearance is 50.8 mL/min/kg and 51.6 mL/min/kg; the half-life is 17.4 min and 18.2 min. Besides, the half-maximal inhibitory concentration (IC50) in data set [2] was found to be 890 nM.
Take `O=C(Nc1cncc2ccccc12)C1CN(S(=O)(=O)CCO)Cc2ccc(Cl)cc21` (stereo not given): in data set [1] (rat), the AUC(0-inf) is 241 ng·h/mL and 283 ng·h/mL; the exposure AUC(0-t) is 236 ng·h/mL and 280 ng·h/mL; the C0 was 441 ng/mL and 590 ng/mL; the MRT inf was 56.2 min and 49.7 min. In addition, in data set [1] (rat), the mean residence time MRT last is 44.2 min and 52.6 min; the Vd is 1.72 L/kg and 1.66 L/kg; the clearance is 34.6 mL/min/kg and 29.6 mL/min/kg; the half-life was 47.1 min and 72.6 min. This compound also came in with a half-maximal inhibitory concentration (IC50) in data set [2] of 232 nM.
On to `C=CC(=O)N(C(=O)[C@@H]1CCOc2ccc(Cl)cc21)c1cncc2ccccc12` (stereo in doubt), for which the CC50 (a549) is greater than 9.99 µM and the CC50 (vero) is greater than 9.99 µM.
In the case of `Cc1cccc2cncc(NC(=O)Cc3cccc(Cl)c3)c12`, in data set [1] (rat), the total exposure AUC(0-inf) is 206 ng·h/mL and 112 ng·h/mL; the exposure AUC(0-t) was 203 ng·h/mL and 111 ng·h/mL; the C0 was 934 ng/mL and 490 ng/mL; the MRT inf was 21.8 min and 18.2 min. In data set [1] (rat), the mean residence time MRT last is 16.2 min and 19.9 min; the Vd is 0.737 L/kg and 1.83 L/kg; the clearance is 40.4 mL/min/kg and 84.8 mL/min/kg; the half-life is 24.9 min and 34.8 min. Moreover, in data set [2], the IC50 came to 331 nM.
With `Cc1c(N)cncc1NC(=O)Cc1cccc(Cl)c1`, in data set [1] (rat), the AUC(0-inf) was 210 ng·h/mL and 187 ng·h/mL; the AUC(0-t) was 209 ng·h/mL and 185 ng·h/mL; the C0 was 485 ng/mL and 446 ng/mL; the MRT inf is 28.8 min and 30.5 min. In data set [1] (rat), the mean residence time (MRT last) is 29.5 min and 27.3 min; the volume of distribution (Vd) was 1.21 L/kg and 1.28 L/kg; the clearance was 39.8 mL/min/kg and 44.6 mL/min/kg; the half-life is 28.2 min and 25 min. Besides, the concentration for half-maximal inhibition (IC50) in data set [2] was 4220 nM.
As to `CS(=O)(=O)c1ccc2cncc(NC(=O)C3CNC(=O)c4ccc(Cl)cc43)c2c1` (stereo not given), in data set [1] (rat), the AUC(0-inf) is 177 ng·h/mL and 160 ng·h/mL; the AUC(0-t) was 175 ng·h/mL and 157 ng·h/mL; the C0 was 636 ng/mL and 540 ng/mL; the MRT inf is 25.6 min and 22 min. For the same compound, in data set [1] (rat), the MRT last was 20.7 min and 22.8 min; the Vd was 1.08 L/kg and 1.38 L/kg; the clearance is 49 mL/min/kg and 54.2 mL/min/kg; the half-life is 19.3 min and 23.4 min. The half-maximal inhibitory concentration (IC50) in data set [2] was 2740 nM.
`Cc1nnc(CN2Cc3ccc(Cl)cc3C(C(=O)Nc3cncc4ccccc34)C2)[nH]1` (stereo not given): in data set [1] (rat), the AUC(0-inf) was 143 ng·h/mL and 182 ng·h/mL; the exposure AUC(0-t) was 142 ng·h/mL and 178 ng·h/mL; the C0 is 621 ng/mL and 588 ng/mL; the mean residence time MRT inf was 28.7 min and 20.8 min. In addition, in data set [1] (rat), the mean residence time (MRT last) was 19.7 min and 25.8 min; the Vd is 1.21 L/kg and 1.32 L/kg; the clearance was 58.3 mL/min/kg and 46.8 mL/min/kg; the half-life is 18.7 min and 22.1 min. The compound also yielded a 50% inhibitory concentration (IC50) in data set [2] of 750 nM.
For `COc1cccc2[nH]c(=O)cc(C(=O)NCCOc3ccccc3OCC3CC3)c12`, the CC50 (a549) was greater than 10 µM.
For the compound `COc1ccc2cncc(NC(=O)[C@H]3CCNc4cc(Cl)c(Cl)cc43)c2c1` (stereo in doubt), in data set [1] (mouse), the area under the curve AUC(0-inf) is 113 ng·h/mL and 130 ng·h/mL; the AUC(0-t) was 113 ng·h/mL and 128 ng·h/mL; the C0 was 179 ng/mL and 202 ng/mL; the MRT inf was 28.6 min and 30.8 min. Also, in data set [1] (mouse), the MRT last was 27.6 min and 28.9 min; the Vd was 2.09 L/kg and 1.97 L/kg; the clearance is 73.4 mL/min/kg and 64 mL/min/kg; the half-life is 16.1 min and 19.4 min. The half-maximal inhibitory concentration (IC50) in data set [2] is < 50 nM and 82.3 nM and 53.6 nM.
With `O=C(Cc1cccc(Cl)c1)Nc1c[nH]c(=O)c2ccccc12`, in data set [1] (rat), the AUC(0-inf) is 200 ng·h/mL and 464 ng·h/mL; the AUC(0-t) is 192 ng·h/mL and 458 ng·h/mL; the C0 is 496 ng/mL and 718 ng/mL; the MRT inf was 42.7 min and 34.1 min. For the same compound, in data set [1] (rat), the MRT last was 29.2 min and 40.5 min; the distribution volume (Vd) was 1.42 L/kg and 0.802 L/kg; the clearance was 41.6 mL/min/kg and 19.6 mL/min/kg; the half-life was 26.2 min and 25.4 min. In addition, in data set [2], the half-maximal inhibitory concentration (IC50) is greater than 99500 nM.
